Where “and” joins values, the source holds several entries; their conditions need not be identical. Equal values may be shown once. Read-outs that look alike come from different tables or passages of the source.
What was measured:
[1] = isothermal titration calorimetry, binding to hydroxyapatite; settings: ITC
Description: ITC experiments in the presence of ligand (Hdpp or XT) were carried out in either piperazine (100 mM) pH 5 or HEPES (100 mM) pH 7.4. Titrations were performed by injecting consecutive 10 μL aliquots of ligand (2.5–80 mM) or metal ion/ligand solution (2.5/10 mM for Hdpp and 81/90 mM for XT) into the ITC cell (volume = 1.4 mL) containing hydroxyapatite (0.1–1.5 mM) suspension. Hydroxylapatite suspensions were prepared by adding the required amount of hydroxyapatite to the appropriately buffered solution followed by sonication for 5 minutes. The ITC cell was stirred continuously during the titration. Control experiments (heats of dilution) were performed by titration of ligand or metal ion/ligand solution into buffer containing no hydroxyapatite. Each ITC experiment was performed in triplicate (at least). The error associated with diffusion from the syringe during baseline equilibration, the first injection was only 5 μL, and the associated small heat was not included in the data analysis.

[2] = design: method as in PMID 23299719, PMID 11442371; settings: cited from earlier work; for pM (= –log[La^3+]): calculated at pH 7.4, 100 μM ligand, 10 μM metal
[3] = tissue and plasma distribution of lanthanum after multiple intravenous doses (ICP-MS); format: in vivo, SD rats; settings: for plasma levels after 5 days of treatment / La^3+ concentration in brain / La^3+ concentration in heart / La^3+ concentration in kidney / La^3+ concentration in spleen: IV 1 mg kg^–1 per day for 5 days; for plasma levels after 5 days of treatment: mean ± SD; for La^3+ concentration in brain / La^3+ concentration in heart / La^3+ concentration in kidney / La^3+ concentration in spleen: n = 6, mean ± SD; for plasma concentration, t=end, mean / plasma concentration, t=end, single animals: IV 1mg/kg/day, end of trial; for plasma concentration, t=end, mean: n=6, mean; for plasma concentration, t=end, single animals: value of each animal, 1 mg/kg/day
Description: (§1) Lanthanide concentration for both in vivo and in vitro studies were determined by ICP-MS analysis by the method reported previously.[30] In brief, samples were dried (vacuum centrifugation) and dissolved in conc. nitric acid (Optima) and slowly heated to 105 °C over 1 h and maintained at 105 °C for 24 h. Hydrogen peroxide (approximately 2 mL) was added and samples heated at 140 °C for 24 h. Samples were evaporated to dryness at 150 °C before redissolving in 3 mL of 10% nitric acid (with 10 ppm Rh) prior to analysis by ICP-MS.
(§2) Solutions of La(dpp)3 and La(XT) (1 mg mL^–1) were prepared in 10% DMSO and stored at 4 °C. Animals were administered with a dose of 1 mg kg^–1 once daily for 5 consecutive days by intravenous injection via jugular vein port. The animals were sacrificed on the day of the 5th dose and the spleen liver, kidney lungs, heart, brain and bones were collected. Blood samples (0.5 mL) were withdrawn at pre-dose and post-dose. The blood was centrifuged for 10 min at […] at room temperature to obtain the plasma. For organ homogenization, 1 g organ was added to 2 mL normal saline. Bones were cleaned manually of all soft flesh and sectioned into knee, middle, and hip parts using a ceramic blade, and lyophilized prior to normal acid digestion.

[4] = bone (femur) distribution of lanthanum after multiple doses; format: in vivo, SD rats; settings: 1 mg kg^–1 per day for 5 days, ANOVA p 0.006, 0.017, 0.004 (hip, mid, knee)
Description: as §1, §2

[5] = hydroxyapatite binding study (batch, La^3+ depletion in supernatant by ICP-MS); settings: pH 7.4, 37 °C, excess HAP
Description: as §1
All time points were run in triplicate. Samples containing 10 mg of hydroxyapatite (Sigma-Aldrich) were initially incubated and agitated (37 °C, 220 rpm) with 0.9 mL HEPES buffer (100 mM, pH 7.4) in 1.5 mL Eppendorfs for 24 hours. Stock solutions (1.0 mM) of La(dpp)3 and La(XT) were prepared from the premade complexes dissolved in HEPES buffer. At the outset of the experiment, 100 μL of either stock solution was added to a sample and incubated and agitated for a set time. When the time point was reached, the supernatant was carefully removed, taking care not to disturb the residual HAP, and filtered through a 22 micron frit. […] Samples containing La(dpp)3 were also analysed by UV-Vis spectroscopy to determine Hdpp concentration. […]

MG-63 cells = test system: MG-63 cells; design: method as in PMID 17992287, PMID 23299719, PMID 11442371; settings: earlier work of the authors, read-out: EC50 (cellular toxicity); cited from earlier work
[6] = plasma clearance and pharmacokinetics after single intravenous dose; format: in vivo, SD rats
Description: as §1
(§3) Solutions of La(dpp)3 were prepared in 10% DMSO and the stability of the complex over time (7 days) monitored by spectrophotometric methods. The solution of La(dpp)3 was administered to the animals through cannulae implanted in their jugular veins (n = 6). The animals received a dose of 1 mg kg^–1 at time 0 h and blood samples (0.25 mL were withdrawn at pre-dose, 5, 10, 15, 30 min and 1, 2, 3, 4, 6, 10, 24, 48, 72, 96 and 144 h post-dose). The animals were sacrificed following the last time point and the spleen, liver, kidney, lungs, heart and brain were collected. Lanthanide concentrations were determined by ICP-MS analysis following acid digestion of the samples. The calibration curves were linear in the range of 0.1–100 ng mL^–1 and 1–50 ng mL^–1 in the organs and plasma; respectively. The plasma pharmacokinetic parameters were derived by non-compartmental analysis of plasma concentration-time profiles using Phoenix software (Ver. 1.3).

[7] = tissue distribution of lanthanum after single intravenous dose (ICP-MS); format: in vivo, SD rats; settings: single IV dose 1 mg kg^–1, last sampling point 144 h
Description: as §1, §3

[8] = design: method as in Cawthray et al. 37; settings: ITC, 37 °C, ref Cawthray et al. 37; cited from earlier work
[9] = thermodynamic stability of the complex
[10] = La^3+ in plasma, La(dpp)3 1 mg kg^–1 IV, SD rats, non-compartmental, n = 6, mean

Which “apparent K a (pH 5)” value ([1]; 37 °C, pH 5 (100 mM piperazine), one-site bimolecular–bimolecular model) does the source give for `O=C(O)CN(CC(=O)O)CP(=O)(O)CN(CC(=O)O)CC(=O)O` [H5XT, bis[[bis(carboxymethyl)amino]-methyl]phosphinate] here?
Its value is 1.9 (±0.4) × 10^2 M^–1.

And the “K (one-site fit)” value ([1]; 37 °C, pH 7.4 (100mM HEPES), 30.4mM H5XT into 1.1 mM HAP, Fig. S2)?
Its value is 6.61E3±1.33E3.

Which results are given for `O=C([O-])CN(CC(=O)[O-])CP(=O)(O)CN(CC(=O)[O-])CC(=O)[O-].[La+3]` [La(XT)]?
pM (= –log[La^3+]) [2]: 12.0; log βML [2, 9]: 13.0(3); plasma levels after 5 days of treatment [3]: 5999 ± 302 ng g^–1; La^3+ concentration in brain [3]: 112 ± 84 ng g^–1; La^3+ concentration in heart [3]: 768 ± 115 ng g^–1; La^3+ concentration in kidney [3]: 1320 ± 157 ng g^–1; La^3+ concentration in spleen [3]: 3854 ± 827 ng g^–1; plasma concentration, t=end, mean [3]: 5998.7 ng/g weight; plasma concentration, t=end, single animals [3]: 5843.4 ng/g weight and 6432.4 ng/g weight and 5776.8 ng/g weight and 6337.3 ng/g weight and 5782.3 ng/g weight and 5819.9 ng/g weight; bone distribution of lanthanum compared to La(dpp)3 [4]: slightly greater; La^3+ bound to HAP ([5]; after 4 h): less than 20%

For `Cc1c([O-])c(=O)ccn1C.Cc1c([O-])c(=O)ccn1C.Cc1c([O-])c(=O)ccn1C.[La+3]` [La(dpp)3], which EC50 (MG-63 cells) is on record?
Its EC50 is greater than 100 µM.

What about the “pM (= –log[La^3+])” value [2] of the same molecule?
The value was 5.8.

What about the “log βML3” value [2, 9] of the same molecule?
The value was 17.44.

And the “lanthanum in plasma beyond 10 h” value ([6]; 1 mg kg^–1 IV, beyond 10 h)?
Its value is “not detected”.

What about the “time until plasma lanthanum is back to pre-dose concentrations” value ([6]; 1 mg kg^–1 IV, pre-dose ∼15 ng mL^–1) of the same molecule?
The value was no more than 24 h.

What about the “C 0” value [6, 10] of the same molecule?
The value was 4973 ± 557 ng mL^–1 and 4973.09 ng mL^–1.

And the Cl [6, 10]?
The Cl was 77 mL h^–1 kg^–1 and 77.24 mL h^–1 kg^–1.

And the K el [6, 10]?
The K el was 0.20 h^–1.

What about the MRT [6, 10] of the same molecule?
The MRT was 3.46 h.

What about the “T 1/2” value [6, 10] of the same molecule?
Its value is 3.61 h.

What about the V ss [6, 10] of the same molecule?
Its V ss is 265 mL kg^–1 and 265.41 mL kg^–1.

And the “plasma lanthanum level as % of C0” value ([6]; within 6 hours after 1 mg kg^–1 IV)?
Its value is “approximately 10%”.

What about the “plasma levels after 5 days of treatment” value [3] of the same molecule?
Its value is 5517 ± 1188 ng g^–1.

What about the “La^3+ concentration in brain” value [3] of the same molecule?
The value was 101 ± 60 ng g^–1.

And the “La^3+ concentration in heart” value [3]?
The value was 635 ± 178 ng g^–1.

And the “La^3+ concentration in kidney” value [3]?
Its value is 992 ± 321 ng g^–1.

What about the “La^3+ concentration in spleen” value [3] of the same molecule?
Its value is 7817 ± 3211 ng g^–1.

And the “plasma concentration, t=end, mean” value [3]?
The value was 5517.0 ng/g weight.

What about the “plasma concentration, t=end, single animals” value [3] of the same molecule?
The value was 4971.8 ng/g weight and 4668.4 ng/g weight and 4232.8 ng/g weight and 7201.5 ng/g weight and 6740.2 ng/g weight and 5287.1 ng/g weight.

What about the “La^3+ concentration in brain” value [7] of the same molecule?
The value was 15 ± 12 ng g^–1.

And the “La^3+ concentration in heart” value [7]?
Its value is 20 ± 7 ng g^–1.

And the “La^3+ concentration in kidney” value [7]?
Its value is 108 ± 95 ng g^–1.

What about the “La^3+ concentration in liver” value [7] of the same molecule?
Its value is 741 ± 109 ng g^–1.

What about the “La^3+ concentration in spleen” value [7] of the same molecule?
Its value is 1164 ± 350 ng g^–1.

What about the “La^3+ bound to HAP” value ([5]; first 15 minutes) of the same molecule?
The value was “greater than 80%”.

With `[La+3]` [Free La^3+] as the molecule, how does the “apparent K a (pH 5)” value [8] read?
Its value is 2.4 (±0.2) × 10^6 M^–1.

With `Cc1c(O)c(=O)ccn1C` [Hdpp, 3-hydroxy-1,2-dimethylpyridin-4(1H)-one] as the molecule, how does the “interaction of ligand alone with HAP” value ([1]; pH 5, absence of La^3+) read?
Its value is “do not see any evidence of interaction”.

What about the “binding of ligand alone to HAP” value ([1]; pH 7.4, absence of La^3+) of the same molecule?
The value was “no binding is observed”.
